# Laboratory results from ChEMBL document CHEMBL3112432, “Synthesis of 5α-cholestan-6-one derivatives and their inhibitory activities of NO production in activated microglia: discovery of a novel neuroinflammation inhibitor” (Bioorg Med Chem Lett, 2014).
# Calls of active or inactive are those of the source. The rule behind the calls is not given here.
# Assays:
# BV-2 [1] = test: Antiinflammatory activity in mouse BV2 cells assessed as inhibition of LPS-stimulated IL-1beta mRNA expression preincubated for 30 mins followed by LPS-stimulation by RT-PCR analysis; assay type: functional, cell-based
# BV-2 [2] = test: Antiinflammatory activity in mouse BV2 cells assessed as inhibition of LPS-stimulated iNOS mRNA expression preincubated for 30 mins followed by LPS-stimulation by RT-PCR analysis; assay type: functional, cell-based
# BV-2 [3] = test: Antiinflammatory activity in mouse BV2 cells assessed as inhibition of LPS-stimulated iNOS protein expression at 40 uM preincubated for 30 mins followed by LPS-stimulation measured after 16 hrs by Western blotting analysis; assay type: functional, cell-based
# Mus musculus [4] = test: Neuroprotective activity in mouse middle cerebral artery occlusion model assessed as reduction in activated microglial cells in medial periphery of cortical infarct area at 30 mg/kg, ip administered 1 hr prior to onset of ischemia measured after 24 hrs by Iba-1 staining-based microscopic analysis; assay type: functional, organism-based; design: dose 30 mg/kg
# BV-2 [5] = test: Antiinflammatory activity in mouse BV2 cells assessed as inhibition of LPS-stimulated COX-2 mRNA expression preincubated for 30 mins followed by LPS-stimulation by RT-PCR analysis; assay type: functional, cell-based
# [6] = Cytotoxicity against mouse BV2 cells assessed as cell viability at 40 uM after 24 hrs by MTT assay relative to control; assay type: cell-based, BV-2; conditions: read-out: Activity
# [7] = Antiinflammatory activity in LPS-stimulated mouse BV2 cells assessed as inhibition of NO production at 40 uM after 24 hrs by Griess method relative to control; assay type: functional; conditions: BV-2, 24 h
# BV-2 [8] = test: Antiinflammatory activity in LPS-stimulated mouse BV2 cells assessed as inhibition of NO production after 24 hrs by Griess method; assay type: functional, cell-based
# BV-2 [9] = test: Antiinflammatory activity in mouse BV2 cells assessed as inhibition of LPS-stimulated TNF-alpha mRNA expression preincubated for 30 mins followed by LPS-stimulation by RT-PCR analysis; assay type: functional, cell-based
# BV-2 [10] = test: Antiinflammatory activity in mouse BV2 cells assessed as inhibition of LPS-stimulated COX-2 protein expression at 40 uM preincubated for 30 mins followed by LPS-stimulation measured after 16 hrs by Western blotting analysis; assay type: functional, cell-based
# Mus musculus [11] = test: Neuroprotective activity in ip dosed mouse middle cerebral artery occlusion model assessed as reduction in infarction volume administered 1 hr prior to onset of ischemia measured after 24 hrs by TTC staining-based microscopic analysis; assay type: functional, organism-based
structure (smiles),measurement,setting,value
COC(=O)CC[C@@H](C)[C@H]1CC[C@H]2[C@@H]3[C@H](O)C(=O)[C@H]4C[C@H](O)CC[C@]4(C)[C@H]3CC[C@]12C,inhibition,BV-2 [1],Dose-dependent effect
same,inhibition,BV-2 [2],Dose-dependent effect
same,inhibition,BV-2 [3],Active
same,Activity,Mus musculus [4],Active
same,inhibition,BV-2 [5],Dose-dependent effect
same,"viability at 24 h, 40 µM",[6],95.4%
same,inhibition at 40 µM,[7],73.6%
same,inhibition,BV-2 [8],Dose-dependent effect
same,inhibition,BV-2 [9],Dose-dependent effect
same,inhibition,BV-2 [10],Active
same,Activity,Mus musculus [11],Dose-dependent effect
